According to patent US11767296B2, “Heteroaryl compounds as kinase inhibitor” (FUJIAN HAIXI PHARMACEUTICALS CO., LTD, priority 2018, dated 2023):

Legend:
[1] = biological target: T1, CSF-1R (Homo sapiens, UniProt P07333); assay: CSF-1R kinase assay (HTRF kinEASE TK); assay type: biochemical; conditions: ATP 2.5 uM, enzyme 0.012 ng/ul, read-out: In vitro inhibitory activity of CSF-1R IC50
T1 construct: purchased Invitrogen PV3249
Method: Example 53: CSF-1R Kinase Assay
I. Materials and Instruments
• 2104 EnVision® Multilabel Reader (PerkinElmer) • OptiPlate-384, White Opaque 384-well MicroPlate (Cat.6007290, PerkinElmer) • HTRF kinEASE TK (Cat.62TKOPEC, Cisbio) • CSF-1R(Cat. PV3249, Invitrogen) • ATP 10 mM (Cat. PV3227, Invitrogen) • DTT 1 M (Cat. D5545, Sigma) • MgCl2 1 M (Cat. M8266, Sigma) • MnCl2 1 M (Cat.244589. Sigma)
II. Experimental Procedure
Substrate-TK and ATP were diluted to 5 times of the reaction concentration by 1×Kinase Buffer. CSF1R enzyme was diluted to 5×enzyme solution by 1×kinase buffer. Sa-XL665 was diluted to 4×Sa-XL665 solution by Detection Buffer. 100×TK-Ab-Cryptate Solution TK-Ab-Cryptate was diluted to 100×TK-Ab-Cryptate solution by Detection Buffer. 2. Experimental Procedure After all reagents had been prepared according to the above method, except enzymes, the sample was added after equilibrium to room temperature. • a. Firstly, 2.5% DMSO solution was prepared by using 1×kinase buffer (the high concentration of DMSO will affect the reaction and control the final concentration of DMSO to 1%). Then the compounds were diluted by 2.5% DMSO solution corresponding to the enzyme. The screening concentration of the compounds was 4 times gradient dilution from 1000 nM, and 8 concentrations. In addition to the control pore, 4 microlitres of diluted solution containing 2.5% DMSO were added to the reaction pore and 4 microlitres of previously prepared solution containing 2.5% DMSO were added to the control pore. • b. 2 microlitres of previously prepared TK-biotin substrate solution was added to all reaction pore (the amount of substrate used for enzyme screening is shown in Table 15). • c. Adding 2 microlitres of CSF1R enzyme solution of corresponding concentration (the amount of enzyme is shown in Table 15) to all reaction pore except negative pore. The negative pore is supplemented with 2 microlitres of enzyme corresponding to 1 xkinase buffer. After mixing, the compound and enzyme can be fully combined by incubating at room temperature for 10 minutes. • d. Enzyme reaction was initiated by adding 2 microlitres ATP solution of corresponding concentration to all reaction pore. The reaction time was 30 minutes (the corresponding ATP concentration and reaction time at enzyme screening were shown in Table 15). • e. Preparing the test solution 5 minutes before the end of kinase reaction. Streptavidin-XL665 and TK antibody europium cryptate (1:100) were prepared with detection buffer in the kit (the corresponding concentration of detection reagent for enzyme screening is shown in Table 15). • f. After the kinase reaction, 5 microlitres of diluted Streptavidin-XL665 were added to all reaction pore, mixing, and then the diluted TK antibody europium cryptate solution was added immediately. • g. After 1 hour reaction at room temperature, the fluorescence signals (320 nm stimulation, 665 nm, 615 nm emission) were detected by ENVISION (Perkinelmer) instrument. The inhibition rate of each pore was calculated by full active pore and background signal pore, and the average value of complex pore was obtained. Meanwhile, the half inhibitory activity (IC50) of each compound was fitted by professional drawing analysis software PRISM 5.0. The Flow Chart of the Experiment is as Follows:
3. Data Analysis Emission Ratio (ER)=665 nm Emission signal/615 nm Emission signal Inhibitory rate=(ERpositive−ERsample)/(ERpositive−ERnegative)*100% Using Graphpad Prism 5 and log (inhibitor) vs. normalized response to fit IC50 curve and calculate IC50 value. The IC50 data of the compounds prepared in Representative Examples 3-52 are as follows (Table 18): […]

[2] = tested on: NFS-60 cells; assay: NFS-60 cell assay (CCK proliferation, M-CSF stimulated); assay type: cell-based; conditions: Mus musculus, compound 0.5 uM, 72 h, 40 ng/mL M-CSF, read-out: inhibition ratio % (NFS-60 cell proliferation)
Method: Example 54: NFS-60 Cell Assay
1. Experimental Materials
Mouse Myelogenous Leukemia Cells (NFS-60)
Using DMSO to dissolve, and the required concentration was prepared with full culture medium without factors.
Penicillin-streptomycin: TRANS
Mouse M-CSF/CSF-1 Protein: Sino Biological Inc, No. 51112-MNAH
M-CSF: Qilu Pharmaceutical co., Ltd.
The logarithmic growth phase of NFS-60 cells (1640+10% FBS+40 ng/ml M-CSF+1% Penicillin-streptomycin) were centrifuged (1000 r/min) and cultured in a factor-free medium at 37° C., 5% CO2 for 24 hours. Centrifugating (1000 r/min), the culture medium was replaced by new culture medium including 40 ng/mL factors, and inoculated on 96-well plate by 2*10^4 cells/mL, 100 μL/hole. After 16 hours, the tested compounds were added 10 μL/hole, 3 duplicate holes per compound, 37° C., 5% CO2, continue to cultured for 72 h. Then 10 μL CCK reagent was added to each hole. After incubation for 4 hours, the absorbance of each hole was measured at 450 nm wavelength. According to Formula: Inhibitory rate (%)=(1-OD value of test pore/OD value of solvent control pore)×100% 3. Experimental Results The experimental results of the inhibition of NFS-60 cell proliferation by the compounds prepared in Example 3-52, 0.5 uM, are shown in the following table: […]

T1 sequence (P07333 20-972): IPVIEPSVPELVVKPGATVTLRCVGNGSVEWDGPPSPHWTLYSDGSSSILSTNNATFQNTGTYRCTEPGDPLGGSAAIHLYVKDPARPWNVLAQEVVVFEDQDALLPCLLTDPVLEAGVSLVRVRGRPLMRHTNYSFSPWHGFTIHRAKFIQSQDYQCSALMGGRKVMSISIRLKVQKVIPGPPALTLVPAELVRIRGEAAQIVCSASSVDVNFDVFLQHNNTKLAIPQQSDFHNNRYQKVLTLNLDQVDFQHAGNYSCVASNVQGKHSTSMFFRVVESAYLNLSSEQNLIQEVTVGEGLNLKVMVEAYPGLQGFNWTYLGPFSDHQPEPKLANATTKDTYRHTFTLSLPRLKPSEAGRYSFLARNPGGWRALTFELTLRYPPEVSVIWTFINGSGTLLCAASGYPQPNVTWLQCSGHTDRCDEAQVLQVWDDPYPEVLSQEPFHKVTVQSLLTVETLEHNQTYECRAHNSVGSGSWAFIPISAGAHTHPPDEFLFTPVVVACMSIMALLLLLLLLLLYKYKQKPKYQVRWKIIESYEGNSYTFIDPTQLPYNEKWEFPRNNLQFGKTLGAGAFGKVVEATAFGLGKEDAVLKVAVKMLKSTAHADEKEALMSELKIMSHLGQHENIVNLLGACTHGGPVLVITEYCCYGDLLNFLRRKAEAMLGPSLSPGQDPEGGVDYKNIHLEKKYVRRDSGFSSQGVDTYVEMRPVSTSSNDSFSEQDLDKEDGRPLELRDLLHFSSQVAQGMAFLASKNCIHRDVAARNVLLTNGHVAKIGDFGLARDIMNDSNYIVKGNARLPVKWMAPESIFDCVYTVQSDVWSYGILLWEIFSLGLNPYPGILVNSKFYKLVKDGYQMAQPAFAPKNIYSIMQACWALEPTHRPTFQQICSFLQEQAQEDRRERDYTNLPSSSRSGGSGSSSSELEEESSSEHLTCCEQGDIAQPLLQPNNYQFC

Q: Which IC50 [1] does the source give for `Cn1cc(-c2cnc(N)c(Oc3cccc(NC(=O)Nc4ccc(Cl)c(C(F)(F)F)c4)c3)c2)cn1` [Compound 348, 1-(3-((2-amino-5-(1-methyl-1H-pyrazol-4-yl)pyridin-3-yl)oxy)phenyl)-3-(4-chloro-3-(trifluoromethyl)phenyl)urea] here?
A: ≤ 50 nM

Q: Which IC50 [1] does the source give for `Nc1ncc(Cl)cc1OCc1cccc(NC(=O)c2cccc(Cl)c2)c1` [Compound 22, N-(3-(((2-amino-5-chloropyridin-3-yl)oxy)methyl)phenyl)-3-chloro-benzamide] here?
A: ≤ 50 nM

Q: How did the IC50 [1] turn out when `Cc1ccc(Cl)c(C(=O)Nc2cccc([C@@H](C)Oc3cc(Cl)cnc3N)c2)c1` [Compound 73, (R)-N-(3-(1-((2-amino-5-chloropyridin-3-yl)oxy)ethyl)-phenyl)-2-chloro-5-methylbenzamide] was run?
A: ≤ 50 nM

Q: `Cc1cccc(C(=O)Nc2cccc(Oc3cc(Cl)cnc3N)c2)c1` [Compound 305, N-(3-((2-amino-5-chloropyridin-3-yl)oxy)phenyl)-3-methyl-benzamide] was tested. Which IC50 [1] did it give?
A: 51 to 500 nM

Q: With `Cc1ccc(C(=O)Nc2cccc([C@@H](C)Oc3cc(Cl)cnc3N)c2)cc1S(C)(=O)=O` [Compound 126, (R)-N-(3-(1-((2-amino-5-chloropyridin-3-yl)oxy)ethyl)-phenyl)-4-methyl-3-(methylsulfonyl)benzamide] as the molecule, how does the inhibition at 0.5 µM [2] read?
A: ≥ 50%

Q: For `Cc1cc(C)cc(C(=O)Nc2cccc([C@@H](C)Oc3cc(-c4cnn(C)c4)cnc3N)c2)c1` [Compound 171, (R)-N-(3-(1-((2-amino-5-(1-methyl-1H-pyrazol-4-yl)pyridin-3-yl)oxy)ethyl)phenyl)-3,5-dimethyl benzamide], which IC50 [1] is on record?
A: ≤ 50 nM

Q: Which inhibition at 0.5 µM [2] does the source give for `C[C@@H](Oc1cc(-c2cnn(C3CC3)c2)cnc1N)c1cccc(NC(=O)c2cccc(N(C)C)c2)c1` [Compound 212, (R)-N-(3-(1-((2-amino-5-(1-cyclo-propyl-1H-pyrazol-4-yl)pyridin-3-yl)oxy)ethyl)phenyl)-3-(dimethyl-amino)benzamide] here?
A: ≥ 50%

Q: Which IC50 [1] does the source give for `Cc1cccc(C(=O)Nc2cccc([C@@H](C)Oc3cc(-c4cccnc4)cnc3N)c2)c1` [Compound 202, (R)-N-(3-(1-((6-amino-[3,3′-bipyridin]-5-yl)oxy)ethyl)phenyl)-3-methylbenzamide] here?
A: ≤ 50 nM

Q: Which IC50 [1] does the source give for `Cc1cccc(C(=O)Nc2cccc([C@@H](C)Oc3cc(Cl)cnc3N)n2)c1` [Compound 141, (R)-N-(6-(1-((2-amino-5-chloropyridin-3-yl)oxy)ethyl)-pyridin-2-yl)-3-methylbenzamide] here?
A: 51 to 500 nM

Q: How did the IC50 [1] turn out when `C[C@H](Oc1cc(Cl)cnc1N)c1cccc(NC(=O)c2cccc(Cl)c2)c1` [Compound 55, (S)-N-(3-(1-((2-amino-5-chloropyridin-3-yl)oxy)ethyl)-phenyl)-3-chlorobenzamide] was run?
A: ≤ 50 nM

Q: For `Cc1ccc(C(=O)Nc2cccc([C@@H](C)Oc3cc(-c4cnn(C)c4)cnc3N)c2)cc1C` [Compound 170, (R)-N-(3-(1-((2-amino-5-(1-methyl-1H-pyrazol-4-yl)pyridin-3-yl)oxy)ethyl)phenyl)-3,4-dimethyl benzamide], which IC50 [1] is on record?
A: ≤ 50 nM

Q: `COc1cccc(C(=O)Nc2cc(C(C)Oc3cc(Cl)cnc3N)ccc2F)c1` (stereo not drawn) [Compound 318, N-(5-(1-((2-amino-5-chloropyridin-3-yl)oxy)ethyl)-2-fluorophenyl)-3-methoxybenzamide] was tested. Which IC50 [1] did it give?
A: 51 to 500 nM

Q: How did the IC50 [1] turn out when `C[C@@H](Oc1cc(-c2cnn(C)c2)cnc1N)c1cccc(NC(=O)c2ccc(C(F)(F)F)c(S(C)(=O)=O)c2)c1` [Compound 175, (R)-N-(3-(1-((2-amino-5-(1-methyl-1H-pyrazol-4-yl)pyridin-3-yl)oxy)ethyl)phenyl)-3-(methylsulfonyl)-4-(trifluoromethyl)benzamide] was run?
A: ≤ 50 nM

Q: Which IC50 [1] does the source give for `Cc1cccc(NC(=O)c2cccc([C@H](C)Oc3cc(Cl)cnc3N)c2)c1` [Compound 222, (S)-3-(1-((2-amino-5-chloropyridin-3-yl)oxy)ethyl)-N-(m-tolyl)benzamide] here?
A: 51 to 500 nM

Q: For `Cc1cccc(C(=O)Nc2cccc([C@@H](C)Oc3cncc(Cl)c3)c2)c1` [Compound 323, (R)—N-(3-(1-((5-chloropyridin-3-yl)oxy)ethyl)phenyl)-3-methylbenzamide], which IC50 [1] is on record?
A: 51 to 500 nM

Q: With `Cc1cccc(C(=O)Nc2ccc(Cl)c([C@@H](C)Oc3cc(Cl)cnc3N)c2)c1Cl` [Compound 95, (R)-N-(3-(1-((2-amino-5-chloropyridin-3-yl)oxy)ethyl)-4-chlorophenyl)-2-chloro-3-methylbenzamide] as the molecule, how does the IC50 [1] read?
A: 51 to 500 nM

Q: `C[C@@H](Oc1cc(-c2cnn(C)c2)cnc1N)c1cccc(NC(=O)c2cccc(C3CC3)c2)c1` [Compound 174, (R)-N-(3-(1-((2-amino-5-(1-methyl-1H-pyrazol-4-yl)pyridin-3-yl)oxy)ethyl)phenyl)-cyclopropylbenzamide] was tested. Which IC50 [1] did it give?
A: ≤ 50 nM

Q: With `C[C@@H](Oc1cncc(Cl)n1)c1cccc(NC(=O)c2cccc(C(F)(F)F)c2)c1` [Compound 327, (R)—N-(3-(1-((6-chloropyrazin-2-yl)oxy)ethyl)phenyl)-3-(trifluoromethyl)benzamide] as the molecule, how does the IC50 [1] read?
A: 51 to 500 nM

Q: `Cc1cccc(C(=O)Nc2cccc([C@H](C)Oc3cc(Cl)cnc3N)c2)c1Cl` [Compound 64, (S)-N-(3-(1-((2-amino-5-chloropyridin-3-yl)oxy)ethyl)-phenyl)-2-chloro-3-methylbenzamide] was tested. Which IC50 [1] did it give?
A: ≤ 50 nM

Q: Which IC50 [1] does the source give for `C[C@@H](Oc1cc(-c2cnn(C)c2)cnc1N)c1cccc(NC(=O)c2ccc3c(c2)CCC3)c1` [Compound 188, (R)-N-(3-(1-((2-amino-5-(1-methyl-1H-pyrazol-4-yl)pyridin-3-yl)oxy)ethyl)phenyl)-2,3-dihydro-1H-indene-5-carboxamide] here?
A: ≤ 50 nM

Q: With `CC(C)c1cccc(C(=O)Nc2cccc([C@@H](C)Oc3cc(-c4cnn(C)c4)cnc3N)c2)c1` [Compound 187, (R)-N-(3-(1-((2-amino-5-(1-methyl-1H-pyrazol-4-yl)pyridin-3-yl)oxy)ethyl)phenyl)-3-isopropylbenzamide] as the molecule, how does the IC50 [1] read?
A: ≤ 50 nM

Q: Which IC50 [1] does the source give for `C[C@@H](Oc1cc(Cl)cnc1N)c1cccc(NC(=O)c2cccc(CN3CCN(C)CC3)c2)c1` [Compound 103, (R)-N-(3-(1-((2-amino-5-chloropyridin-3-yl)oxy)ethyl)-phenyl)-3-((4-methylpiperazin-1-yl)methyl)benzamide] here?
A: 500 to 10000 nM

Q: How did the IC50 [1] turn out when `Cc1cccc(NC(=O)Nc2cccc(Oc3cc(Cl)cnc3N)c2)c1` [Compound 331, 1-(3-((2-amino-5-chloropyridin-3-yl)oxy)phenyl)-3-(m-tolyl)urea] was run?
A: 51 to 500 nM

Q: `CNc1ncc(Cl)cc1OCc1cccc(NC(=O)c2cccc(C)c2)c1` [Compound 236, N-(3-(((5-chloro-2-(methylamino)pyridin-3-yl)oxy)methyl)phenyl)-3-methylbenzamide] was tested. Which IC50 [1] did it give?
A: 51 to 500 nM
